Results taken from patent US9284307B2, “Macrocyclic serine protease inhibitors” (Idenix Pharmaceuticals LLC, priority 2009, dated 2016).
pEC50, pIC50: −log10 of the molar value.

Assays:
[1] = test system: HCV Con1 subgenomic replicon in Huh-7 cells (GS4.1 cells); assay: HCV replicon assay (NS4A ELISA, GS4.1 cells); assay type: cell-based; conditions: Hepatitis C virus, 72 hr
Description: Huh-7 cells containing HCV Con1 subgenomic replicon (GS4.1 cells) were grown in Dulbecco's Modified Eagle Medium (DMEM) supplemented with 10% fetal bovine serum (FBS), 2 mM L-glutamine, 110 mg/L sodium pyruvate, 1× non-essential amino acids, 100 U/mL penicillin-streptomycin, and 0.5 mg/mL G418 (Invitrogen). For dose-response testing, the cells were seeded in 96-well plates at 7.5×10^3 cells/well in a volume of 50 μL, and incubated at 37° C./5% CO2. Three hours after plating, 50 μL of ten 2-fold serial dilutions of compounds (highest concentration, 75 μM) were added, and cell cultures were incubated at 37° C./5% CO2 in the presence of 0.5% DMSO. Alternatively, compounds were tested at a single concentration of 15 μM. In all cases, Huh-7 cells lacking the HCV replicon served as negative control. The cells were incubated in the presence of compounds for 72 hr after which they were monitored for expression of the NS4A protein by enzyme-linked immunosorbent assay (ELISA). […] The reaction was stopped after 30 min with 2 N H2SO4, and absorbance was read at 492 nm using Sunrise Tecan spectrophotometer. EC50 values were determined from the % inhibition versus concentration data using a sigmoidal non-linear regression analysis based on four parameters with Tecan Magellan software.

HCV NS3-NS4A protease 2a = target: T1, HCV NS3-NS4A protease 2a (Hepatitis C virus genotype 2a, UniProt Q99IB8); assay: HCV protease assay (HiLyte Fluor TR/QXL 610 FRET peptide), genotype 2a; assay type: biochemical; conditions: 2-3 nM protease, 60 min at 30° C., read-out: IC50 Against HS3/4A 2a
T1 construct: using 2-3 nM HCV NS3-NS4A protease, which was produced according to the method of Taremi et al; made in house
Description: (§1) Measurement of the inhibitory effect of compounds on HCV protease activity was performed using the HiLyte Fluor™ TR/QXL™ 610 FRET peptide from AnaSpec, Inc. (San Jose, Calif.) under conditions developed in-house using 2-3 nM HCV NS3-NS4A protease, which was produced according to the method of Taremi et al. (Protein Science, 1998, 7, 2143-2149). The compounds were tested at a variety of concentrations in assay buffer containing a final DMSO concentration of 5%. Reactions were allowed to proceed for 60 min at 30° C. and fluorescence measurements were recorded with a PerkinElmer Victor^3 V 1420 Multilabel Counter. The IC50 values were determined from the percent inhibition versus concentration data using a sigmoidal non-linear regression analysis based on four parameters with XLfit 4.1 software.

HCV NS3-NS4A protease 1a = target: T2, HCV NS3-NS4A protease 1a (Hepatitis C virus genotype 1a, UniProt P27958); assay: HCV protease assay (HiLyte Fluor TR/QXL 610 FRET peptide), genotype 1a; assay type: biochemical; conditions: 2-3 nM protease, 60 min at 30° C., read-out: IC50 Against HS3/4A 1a
T2 construct: using 2-3 nM HCV NS3-NS4A protease, which was produced according to the method of Taremi et al; made in house
Description: as §1

T2 sequence (P27958 1027-1208): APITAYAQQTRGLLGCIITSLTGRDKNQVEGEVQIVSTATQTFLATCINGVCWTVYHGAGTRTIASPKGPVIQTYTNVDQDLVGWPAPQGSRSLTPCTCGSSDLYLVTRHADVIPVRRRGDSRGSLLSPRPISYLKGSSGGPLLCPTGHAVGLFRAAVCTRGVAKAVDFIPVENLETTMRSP
T1 sequence (Q99IB8 1031-1212): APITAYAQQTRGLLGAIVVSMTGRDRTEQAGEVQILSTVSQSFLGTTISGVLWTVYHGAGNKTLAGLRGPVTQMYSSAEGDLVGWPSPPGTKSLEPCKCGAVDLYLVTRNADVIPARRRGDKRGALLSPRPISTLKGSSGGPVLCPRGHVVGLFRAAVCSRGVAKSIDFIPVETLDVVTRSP

COc1ccc2c(O[C@H]3CC[C@H]4C(=O)N(C)CCCC/C=C\[C@@H]5C[C@@]5(C(=O)NS(=O)(=O)C5(C)CC5)NC(=O)[C@@H]4C3)cc(-c3nc(C(F)(F)F)cs3)nc2c1C [Compound 51]
> 6.00: pEC50 [1] | pIC50 (HCV NS3-NS4A protease 2a) | pIC50 (HCV NS3-NS4A protease 1a)
